Measured values as given in patent US11040963B2 (priority 2017, dated 2021).

Tests used:
[1] = target: HA H1 A/New Caledonia/20/99 (Influenza A virus (A/New Caledonia/20/1999(H1N1)), UniProt Q6WG00); assay: biochemical; settings: Competition binding (AlphaLISA), pIC50 H1 A/New Caledonia/20/99
[2] = system: H1N1 A/New Caledonia/20/99; assay: microbe, parasite or virus in culture; assay type: cell-based, influenza A virus; settings: Influenza A virus, H1N1, MDCK, 96 h, read-out: Virus neutralization assay (VNA), pEC50 H1N1 A/New Caledonia/20/99 (converted)
H1N1 A/PR/8/34-MA = assay: microbe, parasite or virus in culture; assay type: cell-based, influenza A virus; settings: Influenza A virus, MDCK, 96 h, read-out: Virus neutralization assay (VNA), pEC50 H1N1 A/PR/8/34-MA (converted)
in vitro = settings: dog, Cytotoxicity (pCC50) MDCK
H1N1 A/California/07/09 = assay: microbe, parasite or virus in culture; assay type: cell-based, influenza A virus; settings: Influenza A virus, H1N1, MDCK, 96 h, read-out: Virus neutralization assay (VNA), pEC50 H1N1 A/California/07/09 (converted)
[3] = target: HA H1 A/California/07/09 (Influenza A virus (A/California/07/2009(H1N1)), UniProt C3W5X2); assay: biochemical; settings: Competition binding (AlphaLISA), pIC50 H1 A/California/07/09
H5N1 A/Vietnam/1203/04 = assay: microbe, parasite or virus in culture; assay type: cell-based, influenza A virus; settings: Influenza A virus, H5N1, MDCK, 96 h, read-out: Virus neutralization assay (VNA), pEC50 H5N1 A/Vietnam/1203/04, MDCK cells, 96 h, CPE by ATPlite (converted); average of repeats
[4] = target: HA H5 A/Vietnam/1203/04 (Influenza A virus (A/Vietnam/1203/2004(H5N1)), UniProt Q5EP31); assay: biochemical; settings: Competition binding (AlphaLISA), pIC50 H5 A/Vietnam/1203/04

SMILES | IC50 [1] [nM] | EC50 [2] [nM] | EC50 (H1N1 A/PR/8/34-MA) [nM] | CC50 (in vitro) [nM] | EC50 (H1N1 A/California/07/09) [nM] | IC50 [3] [nM] | EC50 (H5N1 A/Vietnam/1203/04) [nM] | IC50 [4] [nM]
COC(=O)[C@@H](c1ccccc1)N1CCN(C(=O)c2cccc(-c3nc4ccc(OC)cc4s3)c2)CC1 [Example 19] | 15.8 | 100 | 126 | > 50100 | 251 | 20 | 1580 | 200
COC(=O)C(c1ccccc1)N1CCN(C(=O)c2cccc(-c3nc4ccc(OC)cc4s3)c2)CC1 (stereo not drawn) [Example 29] | 15.8 | 158 | 126 | 39800 | 251 | 25.1 | 3980 | 251
COC(=O)C(c1ccccc1)N1CCN(C(=O)c2ccnc(-c3nc4cc(C(F)(F)F)ccc4o3)c2)CC1 (stereo not drawn) [Example 119] | 158 | 1580 | – | 10000 | 1000 | 158 | 25100 | 2000
COC(=O)C(c1ccccc1)N1CCN(C(=O)c2cccc(-c3nc4ccc(OC)cc4[nH]3)c2)CC1 (stereo not drawn) [Example 121] | 126 | 1580 | – | 7940 | 3160 | 200 | 39800 | 1580
COC(=O)C(c1ccncc1)N1CCN(C(=O)c2cccc(-c3nc4ccc(OC)cc4s3)c2)CC1 (stereo not drawn) [Example 122] | 200 | 1580 | – | 10000 | 3980 | 398 | 12600 | 2510
COc1ccc2nc(-c3cccc(C(=O)N4CCN([C@@H](c5ccccc5)c5nnc(C)o5)CC4)c3)sc2c1 [Example 124] | 79.4 | 2000 | – | 15800 | 501 | 63.1 | 3980 | 631
Cc1nnc(C(c2ccccc2)N2CCN(C(=O)c3cccc(-c4nc5cc(Cl)ccc5o4)c3)CC2)o1 (stereo not drawn) [Example 125] | 158 | 2000 | – | 25100 | 1580 | 158 | 50100 | 12600
O=C(c1cccc(-c2nc3cc(C(F)(F)F)ccc3o2)c1)N1CCN(C(c2ccccc2)c2nnc(C3CC3)o2)CC1 (stereo not drawn) [Example 127] | 251 | 2000 | – | > 50100 | 2510 | 79.4 | 20000 | 7940
Cc1nnc(C(c2ccccc2)N2CCN(C(=O)c3cccc(-c4nc5cccnc5o4)c3)CC2)o1 (stereo not drawn) [Example 129] | 501 | 2000 | – | > 50100 | 3980 | 631 | > 50100 | 31600
COc1ccc2nc(-c3cccc(C(=O)N4CCN(C5(c6ccccc6)CCN(C)C5=O)CC4)c3)sc2c1 (stereo not drawn) [Example 131] | 3980 | 2510 | – | 20000 | 1580 | 3160 | > 50100 | 39800
COC(=O)C(c1ccccc1)N1CCCN(C(=O)c2cccc(-c3nc4ccc(OC)cc4s3)c2)CC1 (stereo not drawn) [Example 132] | 631 | 2510 | – | > 50100 | 39800 | 794 | > 50100 | 15800
Cn1nnc([C@@H](c2ccccc2)N2CCN(C(=O)c3cc(-c4nc5cc(OC(F)(F)F)ccc5o4)ccn3)CC2)n1 [Example 133] | 10 | 25.1 | – | > 50100 | 63.1 | 15.8 | 631 | 251
Cc1nc([C@@H](c2ccccc2)N2CCN(C(=O)c3cc(-c4nc5cc(OC(F)(F)F)ccc5o4)ccn3)CC2)n[nH]1 [Example 134] | 15.8 | 251 | – | > 50100 | 631 | 39.8 | 3980 | 158
